# Target: T1, Gastricsin (Rattus norvegicus, UniProt P04073)
# T1 sequence (P04073 whole entry): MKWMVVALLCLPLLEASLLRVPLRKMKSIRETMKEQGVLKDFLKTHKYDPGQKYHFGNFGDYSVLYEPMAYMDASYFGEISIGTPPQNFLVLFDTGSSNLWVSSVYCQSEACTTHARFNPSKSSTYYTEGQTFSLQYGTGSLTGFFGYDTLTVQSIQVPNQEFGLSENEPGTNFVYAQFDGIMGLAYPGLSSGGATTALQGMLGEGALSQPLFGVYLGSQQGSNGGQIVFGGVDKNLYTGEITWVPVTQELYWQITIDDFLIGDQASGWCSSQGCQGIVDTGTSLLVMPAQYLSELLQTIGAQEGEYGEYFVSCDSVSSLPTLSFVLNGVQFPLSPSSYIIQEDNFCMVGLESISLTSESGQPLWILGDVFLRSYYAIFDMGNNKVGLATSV
# Assay: ChEBML_154148
# Text: Inhibition of enzyme pepsin
row,Ki,Structure (SMILES)
1,110 nM,CCC(NC(=O)[C@H](C)NC(=O)[C@H](C)CC(=O)[C@H](CC(C)C)NC(=O)[C@@H](NC(=O)CC(C)C)C(C)C)C(=O)O (stereo partly drawn)
2,3 nM,CCC(NC(=O)[C@H](C)NC(=O)[C@H](C)C[C@H](O)[C@H](CC(C)C)NC(=O)[C@@H](NC(=O)CC(C)C)C(C)C)C(=O)O (stereo partly drawn)
3,3 nM,CC(C)CCNC(=O)[C@H](C)NC(=O)C[C@H](O)[C@H](CC(C)C)NC(=O)[C@@H](NC(=O)CC(C)C)C(C)C [3-Hydroxy-6-methyl-4-[3-methyl-2-(3-methyl-butyrylamino)-butyrylamino]-heptanoic acid [1-(3-methyl-butylcarbamoyl)-ethyl]-amide]
